Source: US5239084A, “Substituted aminoalkyl biphenyl compounds” (Hoffmann-La Roche Inc., priority 1990, dated 1993)
Several values for one entry are separate records, joined by “and”; a condition that tells them apart may be missing. Equal values may be shown once. Where a name gives a salt, the structure may show the parent alone. Read-outs that look alike come from different tables or passages of the source.

Tests used:
[1] = system: C. albicans B5; test: agar dilution method, C. albicans B5; format: cell-based, Candida albicans; conditions: for MIC: Candida albicans, B5, 48 h, alone, 37° C., 2 days
[2] = system: C. albicans 3152; test: agar dilution method, C. albicans 3152; format: cell-based, Candida albicans
[3] = system: Candida albicans; test: agar dilution method, synergism with sterol biosynthesis inhibitors; format: cell-based; conditions: in combination with ketoconazole or terbinafine; synergistic when FIC <0.5
[4] = system: C. albicans H12; test: agar dilution method, C. albicans H12; format: cell-based, Candida albicans; conditions: for MIC: Candida albicans, H12, 48 h, alone, 37° C., 2 days
[5] = system: C. albicans 3153; test: agar dilution method, C. albicans 3153; format: cell-based, Candida albicans; conditions: for MIC: Candida albicans, 3153, 48 h, alone, 37° C., 2 days
[6] = system: C. albicans B4; test: agar dilution method, C. albicans B4; format: cell-based, Candida albicans; conditions: for MIC: Candida albicans, B4, 48 h, alone, 37° C., 2 days
[7] = biological target: T1, 2,3-epoxysqualene-lanosterol cyclase (Candida albicans, UniProt Q04782); test: inhibition of 2,3-epoxysqualene-lanosterol cyclase from Candida albicans (cell-free extract, 14C-squalene epoxide); format: biochemical
T1 construct: there was obtained a cell-free extract (CFE) as the supernatant; endogenous in cells; host or cells: Candida albicans culture, protoplasts ruptured, cell-free extract (10000 g supernatant)

[8] = system: C. albicans H29; test: agar dilution method, C. albicans H29; format: cell-based, Candida albicans; conditions: for MIC: Candida albicans, H29, 48 h, alone, 37° C., 2 days; for FIC: synergistic when FIC <0.5
[9] = acute toxicity, single oral administration to mice; conditions: mouse, in vivo
Protocol: The IC50 values were determined graphically and were given in μg of test substance per mL. Table I hereinafter contains IC50 values determined in the above test for representative members of the class of compound defined by formula I as well as concerning the acute toxicity in the case of single oral administration to mice (LD50 in mg/kg).

[10] = in combination with ketoconazole, hydrochloride
[11] = in combination with ketoconazole, synergistic when FIC <0.5, hydrochloride
[12] = in combination with terbinafine
[13] = in combination with terbinafine, synergistic when FIC <0.5
[14] = in combination with ketoconazole
[15] = in combination with ketoconazole, synergistic when FIC <0.5

T1 sequence (Q04782 whole entry): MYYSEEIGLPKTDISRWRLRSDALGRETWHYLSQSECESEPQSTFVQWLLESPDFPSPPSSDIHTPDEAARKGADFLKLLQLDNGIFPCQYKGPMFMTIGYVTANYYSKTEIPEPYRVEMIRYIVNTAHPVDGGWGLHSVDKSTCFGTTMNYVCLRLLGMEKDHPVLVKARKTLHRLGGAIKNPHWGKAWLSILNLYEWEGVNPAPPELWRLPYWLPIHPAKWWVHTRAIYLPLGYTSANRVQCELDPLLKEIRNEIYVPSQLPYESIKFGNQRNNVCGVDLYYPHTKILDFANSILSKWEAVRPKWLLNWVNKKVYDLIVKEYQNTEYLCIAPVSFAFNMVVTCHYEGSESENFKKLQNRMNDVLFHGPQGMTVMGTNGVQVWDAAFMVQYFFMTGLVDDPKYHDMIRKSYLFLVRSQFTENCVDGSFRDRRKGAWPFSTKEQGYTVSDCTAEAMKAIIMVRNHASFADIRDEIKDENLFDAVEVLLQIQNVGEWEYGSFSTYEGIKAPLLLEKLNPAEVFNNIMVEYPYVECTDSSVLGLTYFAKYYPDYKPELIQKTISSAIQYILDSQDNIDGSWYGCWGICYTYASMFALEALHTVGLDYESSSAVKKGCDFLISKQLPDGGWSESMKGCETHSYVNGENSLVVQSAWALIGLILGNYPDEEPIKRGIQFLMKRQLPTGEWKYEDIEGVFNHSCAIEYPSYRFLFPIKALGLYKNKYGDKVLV

| SMILES | MIC [1] [mg/L] | MIC of compound in combination [1, 12] [mg/L] | FIC [1, 13] | synergistic activity [3] | MIC [4] [mg/L] | FIC [4, 11] | MIC of compound in combination [4, 12] [mg/L] | FIC [4, 13] | MIC [5] [mg/L] | MIC of compound in combination [5, 12] [mg/L] | MIC [6] [mg/L] | MIC of compound in combination [6, 12] [mg/L] | FIC [6, 13] | MIC [8] [mg/L] | MIC of compound in combination [8, 12] [mg/L] | FIC [8, 12] | further results |
| --- | --- | --- | --- | --- | --- | --- | --- | --- | --- | --- | --- | --- | --- | --- | --- | --- | --- |
| C=CCN(C)Cc1ccc(-c2ccc(C(=O)c3ccccc3)cc2)cc1 [Compound 14, 4'-[(allylmethylamino)methyl-4-biphenylylphenyl ketone hydrochloride] | 1 | 0.25 | 0.375 | confirm the synergistic activity | 1 | 0.133 and 0.125 | 0.5 | 0.516 | 1 | 0.25 | 2 | 1 | 0.531 | 1 | 0.25 | 0.375 | MIC of compound in combination [1, 10]: 0.06 mg/L and 0.12 mg/L; FIC [1, 11]: 0.125 and 0.25; MIC ([2]; Candida albicans, 48 h, alone, 37° C., 2 days): 1 mg/L; MIC of compound in combination [2, 10]: 0.06 mg/L and 0.12 mg/L; FIC [2, 11]: 0.187 and 0.156; MIC of compound in combination [4, 10]: 0.12 mg/L and 0.06 mg/L; FIC ([5]; in combination with terbinafine, synergistic when FIC <0.5, hydrochloride): 0.281 and 0.561; MIC of compound in combination [6, 10]: 0.12 mg/L and 0.06 mg/L; FIC [6, 11]: 0.078 and 0.040; IC50 [7]: 0.0527 µM; MIC of compound in combination [8, 10]: 0.06 mg/L and 0.12 mg/L; LD50 [9]: > 4000 mg/kg |
| C=CCN(C)Cc1ccc(-c2ccc(C(=O)c3ccc(Br)cc3)cc2)cc1 [Compound 20, 4'-[[(Allylmethylamino)methyl]-4-biphenylylp-bromophenyl ketone hydrochloride] | 1 | 0.25 | 0.5 | confirm the synergistic activity | 2 | 0.156 and 0.078 | 0.25 | 0.25 | 1 | 0.12 | 2 | 0.50 | 0.266 | 1 | 0.25 | 0.50 | MIC of compound in combination [1, 14]: 0.25 mg/L; FIC [1, 15]: 0.25; MIC of compound in combination [5, 14]: 0.12 mg/L; FIC [5, 15]: 0.156; FIC [5, 13]: 0.375; MIC of compound in combination [6, 14]: 0.12 mg/L; FIC [6, 15]: 0.093; IC50 ([7]; cell-free extract, pH 6.9, 30° C., 1 hour, read-out: IC50 (converted)): 0.0309 µM; MIC of compound in combination [8, 14]: 0.25 mg/L; FIC [8, 14]: 0.375 |
